This is an account of results in US8486946B2, “Pyrazolo [4,3-c] cinnolin-3-one M1 receptor positive allosteric modulators” (Merck Sharp & Dohme Corp., priority 2009, dated 2013).

Molecules are shown by their SMILES.

This assay addresses T1, acetylcholine muscarinic M1 receptor (Homo sapiens, UniProt P11229).
T1 construct: expressed in transfected cells; host or cells: CHOnfat (CHO cells; also called CHOK1/hM1)
T1 sequence (P11229 1-460): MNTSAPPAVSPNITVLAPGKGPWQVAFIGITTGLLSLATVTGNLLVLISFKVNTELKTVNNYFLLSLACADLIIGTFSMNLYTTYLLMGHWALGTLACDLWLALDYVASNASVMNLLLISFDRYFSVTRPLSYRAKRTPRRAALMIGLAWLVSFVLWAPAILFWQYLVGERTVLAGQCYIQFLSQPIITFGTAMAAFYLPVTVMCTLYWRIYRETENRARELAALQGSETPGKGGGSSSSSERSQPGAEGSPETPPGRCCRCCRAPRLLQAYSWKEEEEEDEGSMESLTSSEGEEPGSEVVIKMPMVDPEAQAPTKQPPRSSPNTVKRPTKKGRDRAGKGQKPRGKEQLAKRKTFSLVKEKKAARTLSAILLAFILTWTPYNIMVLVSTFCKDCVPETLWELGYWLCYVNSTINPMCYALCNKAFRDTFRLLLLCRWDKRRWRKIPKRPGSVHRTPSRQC
As to the kind of experiment: Muscarinic FLIPR intracellular calcium assay for M1 positive allosteric modulator activity in CHOnfat/hM1 cells. The class given is cell-based. Particulars: 4 min preincubation, then EC20 acetylcholine (3 nM final), calculated from FLIPR values, read-out: IP Value (inflection point). The procedure:
The assay studies the effect of one or several concentrations of test compounds on basal or acetylcholine-stimulated Ca^2+ levels using FLIPR.
Compounds are prepared and subjected to a preincubation period of 4 min. Thereafter, a single EC20 concentration of acetylcholine is added to each well (3 nM final). The intracellular Ca^2+ level of each sample is measured and compared to an acetylcholine control to determine any modulatory activity.
Cells: CHOnfat/hM1, hM2, hM3 or hM4 cells are plated 24 hr before the assay at a density of 18,000 cells/well (100 μL) in a 384 well plate. CHOnfat/hM1 and CHOnfat/hM3 Growth Medium: 90% DMEM (Hi Glucose); 10% HI FBS; 2 mM L-glutamine; 0.1 mM NEAA; Pen-Strep; and 1 mg/ml Geneticin, are added. For M2Gqi5CHOnfat and M4Gqi5CHOnfat cells, an additional 600 ug/ml hygromycin is added.
Equipment: 384 well plate, 120 μL addition plate; 96-well Whatman 2 ml Uniplate Incubator, 37° C., 5% CO2; Skatron EMBLA-384 Plate Washer; Multimek Pipetting System; Genesis Freedom 200 System; Mosquito System; Temo Nanoliter Pipetting System; and FLIPR^384 Fluorometric Imaging Plate Reader System are used.
Buffers. Assay Buffer: Hanks Balanced Salt Solution, with 20 mM Hepes, 2.5 mM Probenecid (Sigma P-8761) first dissolved in 1 N NaOH, 1% Bovine Serum Albumin (Sigma A-9647). Dye Loading Buffer: Assay Buffer plus 1% Fetal Bovine Serum and Fluo-4AM/Pluronic Acid Mixture. 2 mM Fluo-4AM ester stock in DMSO (Molecular Probes F-14202) Concentration of 2 μM in buffer for a final concentration of 1 μM in Assay. 20% Pluronic Acid Solution stock, with concentration of 0.04% in Buffer, 0.02% in Assay.
65 μL of 2 mM Fluo-4AM are mixed with 130 μL of 20% Pluronic Acid. The resulting solution and 650 μL FBS is added to the assay buffer for a total volume of 65 mL. Positive Controls: 4-Br-A23187: 10 mM in DMSO; final concentration 10 μM. Acetylcholine: 10 mM in water, working stock at both 20 μM and 30 μM in assay buffer, final concentration of 10 μM. This is used to check the maximum stimulation of the CHOK1/hM1 cells. 20 μM (2×) acetylcholine is added in the preincubation part of the assay, and the 30 μM (3×) stock is added in the second part. (EC20)Acetylcholine: 10 mM in water, working stock of 9 nM (3×), and final concentration in assay is 3 nM. This is used after the preincubation with test compounds. Addition of the EC20 Acetylcholine to each well with a test compound will ascertain any modulator activity. 24 wells contain 3 nM Acetylcholine alone as a control.
Determining Activity of Putative Compounds:
Screening Plate Compounds are titrated in 96-well plates (columns 2-11), 100% DMSO, started at a concentration of 15 mM (150× stock concentration), and 3-fold serial dilutions using Genesis Freedom200 System. Four 96-well plates are combined into a 384-well plate using Mosquito Nanoliter Pipetting System by transferring 1 μl of serial diluted compounds to each well, and 1 mM acetylcholine (100× stock concentration) were added as a control. Using Temo, 49 μl assay buffer is added to each well of the 384-well plate right before assay.
In a 96-well Whatman 2 ml Uniplate, 9 nM Acetylcholine (3×) is pipetted into wells corresponding to the screening compounds, and into control wells. The 30 μM acetylcholine control (3×) is added into control wells, and the 3× agonist plate is transferred into a 384 well plate.
Cells are washed three times with 100 μL of buffer, leaving 30 μL of buffer in each well. Using Multimek, 30 μL of Dye Loading Buffer is added into each well and incubated at 37° C., 5% CO2 for up to one hr.
After 60 min, the cells are washed three times with 100 μL of buffer, leaving 30 μL of buffer in each well. The cell plate, screening plate, and agonist addition plates are placed on the platform in the FLIPR and the door closed. A signal test to check background fluorescence and basal fluorescence signal is performed. Laser intensity is adjusted if necessary. […]

`Cc1ccc(-c2ccc(Cn3nc4c(=O)n(-c5cccc(C)c5C)nc-4c4ccccc43)cn2)cn1` [Example 90, 2-(2,3-Dimethylphenyl)-5-[(6′-methyl-2,3′-bipyridin-5-yl)methyl]-2,5-dihydro-3H-pyrazolo[4,3-c]cinnolin-3-one]: the EC50 is 29 nM.

With `O=c1c2nn(Cc3ccc(-n4cccn4)cc3)c3c(Cl)cccc3c-2nn1[C@@H]1CCCC[C@H]1O` [Example 61], the EC50 was 42 nM.

`CC1CCOCC1n1nc2c3ccccc3n(Cc3ccc(-n4cccn4)cc3)nc-2c1=O` (racemic) [Example 71, (±)-2-[cis,trans-4-methyltetrahydro-2H-pyran-3-yl]-5-[4-(1H-pyrazol-1-yl)benzyl]-2,5-dihydro-3H-pyrazolo[4,3-c]cinnolin-3-one]: the EC50 was 89 nM.

With `C[C@H]1CCOC[C@@H]1n1nc2c3ccccc3n(Cc3ccc(-n4cccn4)cc3)nc-2c1=O` (single isomer, unassigned) [Example 74], the EC50 was 636 nM.

As for `O=c1c2nn(Cc3ccc(-n4cccn4)cc3)c3c(Cl)cccc3c-2nn1[C@H]1CCOC[C@@H]1O` (single isomer, unassigned) [Example 63, 6-Chloro-2-(trans-3-hydroxytetrahydro-2H-pyran-4-yl)-5-[4-(1H-pyrazol-1-yl)benzyl]-2,5-dihydro-3H-pyrazolo[4,3-c]cinnolin-3-one], the EC50 was 593 nM.

In the case of `O=c1c2nn(Cc3ccc(-n4cccn4)cc3)c3ccccc3c-2nn1-c1ccccc1F` [Example 1, 2-(2-Fluorophenyl)-5-{[4-(1H-pyrazol-1-yl)phenyl]methyl}-2,5-dihydro-3H-pyrazolo[4,3-c]cinnolin-3-one], the EC50 was 28 nM.

For the molecule `Cc1ccccc1-n1nc2c3ccccc3n(Cc3ccc(-c4cnn(C)c4)nc3)nc-2c1=O` [Example 25, 2-(2-Methylphenyl)-5-{[6-(1-methyl-1H-pyrazol-4-yl)pyridine-3-yl]methyl}-2,5-dihydro-3H-pyrazolo[4,3-c]cinnolin-3-one], the EC50 is 144 nM.

On to `Cc1ccccc1-n1nc2c3ccccc3n(Cc3ccc(N4CCOCC4)nc3)nc-2c1=O` [Example 81, 2-(2-Methylphenyl)-5-{[6-(morpholin-4-yl)pyridine-3-yl]methyl}-2,5-dihydro-3H-pyrazolo[4,3-c]cinnolin-3-one], for which the EC50 is 1370 nM.

Turning to `Cc1nc(F)ccc1-n1nc2c3ccccc3n(Cc3ccc(-c4cnn(C)c4)nc3)nc-2c1=O` [Example 86, 2-(6-Fluoro-2-methylpyridin-3-yl)-5-{[6-(1-methyl-1H-pyrazol-4-yl)pyridin-3-yl]methyl}-2,5-dihydro-3H-pyrazolo[4,3-c]cinnolin-3-one], the EC50 was 225 nM.

In the case of `Cc1ccccc1-n1nc2c3ccccc3n(Cc3ccc(Br)cn3)nc-2c1=O` [Example 21, 5-[(5-Bromopyridin-2-yl)methyl]-2-(2-methylphenyl)-2,5-dihydro-3H-pyrazolo[4,3-c]cinnolin-3-one], the EC50 is 2860 nM.

Regarding `Cc1ccccc1-n1nc2c3ccccc3n(Cc3ccc(-n4ccnc4)nc3)nc-2c1=O` [Example 23, 5-{[6-(1H-Imidazol-1-yl)pyridine-3-yl]methyl}-2-(2-methylphenyl)-2,5-dihydro-3H-pyrazolo[4,3-c]cinnolin-3-one], the EC50 is 748 nM.

As for `N#Cc1cccc(F)c1-n1nc2c3ccccc3n(Cc3ccc(-n4cccn4)cc3)nc-2c1=O` [Example 13, 3-Fluoro-2-(3-oxo-5-{[4-(1H-pyrazol-1-yl)phenyl]methyl}-3,5-dihydro-2H-pyrazolo[4,3-c]cinnolin-2-yl)benzonitrile], the EC50 is 14 nM.

On to `O=c1c2nn(Cc3ccc(-n4cccn4)cc3)c3c(Cl)cccc3c-2nn1[C@H]1CCOC[C@@H]1O` (single isomer, unassigned) [Example 62, 6-Chloro-2-(trans-3-hydroxytetrahydro-2H-pyran-4-yl)-5-[4-(1H-pyrazol-1-yl)benzyl]-2,5-dihydro-3H-pyrazolo[4,3-c]cinnolin-3-one], for which the EC50 was 21 nM.

Regarding `O=c1c2nn(Cc3ccc(-n4cccn4)cc3)c3ccccc3c-2nn1CC(O)CO` (centres unmarked) [Example 11, 2-(2,3-Dihydroxypropyl)-5-[4-(1H-pyrazol-1-yl)benzyl]-2,5-dihydro-3H-pyrazolo[4,3-c]cinnolin-3-one], the EC50 is 193 nM.

On to `C[C@@H]1CCOC[C@@H]1n1nc2c3ccccc3n(Cc3ccc(-n4cccn4)cc3)nc-2c1=O` (single isomer, unassigned) [Example 73, cis-2-[4-Methyltetrahydro-2,1-pyran-3-yl]-5-[4-(1H-pyrazol-1-yl)benzyl]-2,5-dihydro-3H-pyrazolo[4,3-c]cinnoline-3-one], for which the EC50 is 771 nM.

Turning to `C[C@@H]1CCOC[C@@H]1n1nc2c3ccccc3n(Cc3ccc(-n4cccn4)cc3)nc-2c1=O` (single isomer, unassigned) [Example 75, cis-2-[4-Methyltetrahydro-2H-pyran-3-yl]-5-[4-(1H-pyrazol-1-yl)benzyl]-2,5-dihydro-3H-pyrazolo[4,3-c]cinnoline-3-one], the EC50 was 158 nM.

Consider `C[C@H]1CCOC[C@@H]1n1nc2c3ccccc3n(Cc3ccc(-n4cccn4)cc3)nc-2c1=O` (single isomer, unassigned) [Example 72, trans-2-[4-Methyltetrahydro-2H-pyran-3-yl]-5-[4-(1H-pyrazol-1-yl)benzyl]-2,5-dihydro-3H-pyrazolo[4,3-c]cinnoline-3-one], for which the EC50 is 47 nM.
